{
  "source": "patent US20250320471A1",
  "about": "“Method for Producing Compounds, Method for Producing Compound Library, Compound Library, and Screening Method” (The University of Tokyo, priority 2021, published 2025)",
  "key": {"[1]": {"tested_on": "LimF", "test": "FIT-LimF system: one-pot in vitro expression and prenylation of teMPs", "assay_type": "biochemical, Limnothrix sp. CACIAM 69d", "settings": "16 hours; for Modification Efficiency % (Tyr prenylation): FIT-LimF system, 20 μM LimF", "description": "First, teMP (teLimE2) mimicking the sequence of bcLimE2 was designed and expressed by genetic code reprogramming using customized cell-free translation, and the so-called flexible in vitro translation (FIT) system (Goto, Y, Katoh, T. & Suga, Flexizymes for genetic code reprogramming. Nat. Protoc., 6, 779-790 (2011)). Specifically, the AUG start codon was reprogrammed with N-chloroacetyl-D-phenylalanine (^ClAcD-F), a linear precursor having a chloroacetyl group (ClAc group) at the N-terminal was expressed, and a thioether bond was formed by a spontaneous ring-closing SN2 reaction with a downstream Cys thiol (FIG. 7a). Note that the FIT system had the composition described below.\nteLimE2 expressed in vitro was incubated for 16 hours at 25° C. in the presence of 100 μM LimF and analyzed by LC-MS. […] The in vitro translation system conjugated with LimF will be referred to hereinafter as the FIT-LimF system.\n38 types of teLimE2 variants in which the His-1 and His+1 positions were substituted with 19 types of proteinogenic amino acid other than Cys were designed and then expressed and modified in the FIT-LimF system. The reaction results were analyzed by LC-MS. In the present experiment, the prenylation process was performed under intentionally poor modification efficiency conditions by using a low LimF concentration (10 μM). This allowed for more accurate investigation of the influence of His−1 and His+1 amino acids.\nThe following series of experiments examined whether teMPs of various ring sizes were tolerated by LimF. Thirteen teMP variants with different ring sizes (4 to 18 residues) and a preferred local sequence motif (Ser-His-Ala/Cys) were designed.\nNext, it was shown that LimF can modify teMPs having a variety of random sequences. Five teMPs composed of random sequences were expressed and modified using the FIT-LimF system (LimF concentration: 10 μM) (FIG. 7e). […]"}, "[2]": {"tested_on": "LimF", "test": "Initial evaluation of LimF with estimated substrates bcLimE1-3 (LC-MS)", "assay_type": "biochemical, Limnothrix sp. CACIAM 69d", "settings": "for geranylation by LimF (LC-MS): 20 μM LimF, 20 μM peptide, 2 mM geranyl pyrophosphate, 20 mM MgCl2, pH 7.5, 37° C., 12 hours", "experimental": "In order to examine the enzymatic activity of LimF, LimF was heterologously-expressed in Escherichia coli using the method described above and incubated with chemically synthesized bcLimE1, bcLimE2 or bcLimE3 in the presence of MgCl2 and a prenyl group donor (geranyl pyrophosphate (GPP)). The reaction conditions were as described below.\nFirst, the same experiment as described above was performed using farnesyl pyrophosphate instead of geranyl pyrophosphate as a prenyl group donor. As a result, a trace amount of farnesylated bcLimE2 was generated, although at a lower efficiency than when GPP was used.\nThe initial evaluation of LimF using estimated substrates (bcLimE1, bcLimE2, and bcLimE3) was performed as follows. An enzymatic reaction was performed for 12 hours at 37° C. under the conditions of LimF (20 μM), peptide substrate (20 μM), prenyl group donor (geranyl pyrophosphate or farnesyl pyrophosphate) (2 mM), HEPES (50 mM, pH 7.5), MgCl2 (20 mM), and DTT (1 mM). After reacting the substrates bcLimE1, bcLimE2, and bcLimE3 for 12 hours at 37° C., respectively, nine times the amount of 1% TFA was added and centrifuged at 4° C. (15300×g, 10 minutes), and a supernatant was recovered. 10 μL of the obtained supernatant was subjected to LC-MS analysis."}, "[3]": {"tested_on": "LimF", "test": "Steady-state kinetics of prenylation facilitated by LimF (wild type)", "assay_type": "biochemical, Limnothrix sp. CACIAM 69d", "settings": "His-prenylation (C10), 1 mM GPP, 40 mM MgCl2, pH 7.2, 25° C.", "experimental": "Under optimal conditions, the steady-state kinetic parameters of the prenylation reaction of bcLimE2 facilitated by LimF were measured by the methods described below.\nThe concentration dependence of GPP and MgCl2 in bcLimE2 prenylation reactions facilitated by LimF was measured in reaction systems containing 1 μM LimF, 1 mM or a suitably modified concentration of GPP, 50 mM HEPES pH 7.2, 0.4 mM substrate, 1 mM DTT, and 40 mM or a suitably modified concentration of MgCl2. A reaction solution containing components other than GPP was prepared and preheated to 25° C., and the reaction was then started by adding GPP. After incubating at 25° C., the reaction was stopped at each point and analyzed by LC-MS. Next, the initial rate was calculated as the slope of increase in the amount of prenylation product produced in the linear region. Three separate reactions were carried out under each condition and the mean and standard deviation of the results were used for the analysis.\nFor GPP concentration dependence and peptide substrate concentration dependence, the kinetic parameters were estimated by fitting the initial rate and GPP substrate concentration or peptide substrate concentration to the Michaelis-Menten model in Graphpad Prism 8.4.2 (GraphPad Prism Software Inc., San Diego, California) software.\nKinetic parameters of the His-prenylation reaction facilitated by LimF were determined based on reactions under optimal conditions using substrates of different concentrations. For the Tyr-prenylation described below, the kinetic parameters were measured under the same conditions except that LimF was set to 5 μM and the reaction temperature was set to 16° C. In order to estimate the kinetic parameters, the initial rate and substrate concentration were fitted to the Michaelis-Menten model in Graphpad Prism 8.4.2 software.\nIn order to further evaluate the two different prenylation modes by LimF, two teMPs (teR6-H5A/Y7H and teR6-H5A) that undergo efficient His-prenylation and Tyr-prenylation, respectively, were designed and chemically synthesized. Kinetic analysis was carried out according to the above method using these peptides."}, "[4]": {"biological_target": "T1, bcLimE2", "T1 chain": "RYPHEEIP"}, "[5]": {"tested_on": "bcLimE2", "test": "Prenyl group donor tolerance of LimF variants (conversion of bcLimE2)", "assay_type": "biochemical", "set-up": "key to Final Conversion Efficiency: “n.r.” indicates that the reaction did not proceed", "settings": "for Final Conversion Efficiency: substrate bcLimE2", "experimental": "An attempt was made to change the selectivity of LimF with respect to prenyl group donors examined in “2. Evaluation of Enzymatic Activity of LimF” by introducing a mutation into LimF. […], illustrated in FIG. 7(a), was used as the substrate.\nFor the assay of LimF variants, 100 μM bcLimE2 was incubated individually at a 5 μL scale with 20 to 100 μM LimF variants under conditions of 1 mM GPP or DMAPP, 50 mM HEPES (pH 7.2), 40 mM MgCl2, 1 mM DTT, and DMSO (4%, v/v). After incubating for 16 hours at 25° C., the reaction was stopped by adding 9 times the amount (45 μL) of a 1% TFA aqueous solution. Next, the mixture was incubated on ice for 10 minutes, a precipitate was separated by centrifugation at 4° C. (15300×g, 10 minutes), and 1 μL of supernatant was subjected to LC-MS analysis.\nAn amino acid forming a small pocket that stores a prenyl group in the crystal structure was selected for the introduction site of the LimF mutation. Specifically, Gly at position 224 was selected, and this was substituted with a larger amino acid. […] This alignment supports the hypothesis that the 224th Gly contributes to prenyl group selectivity.\nFor the assay of LimF variants, 100 μM bcLimE2 was incubated individually at a […] with 20 to 100 μM LimF variants under conditions of 1 mM GPP or FPP, 50 mM HEPES (pH 7.2), 5 mM MgCl2, 1 mM DTT, and DMSO (4%, v/v). After incubating for 16 hours at 25° C., the reaction was stopped by adding 9 times the amount ([…]) of a 1% TFA aqueous solution. Next, the mixture was incubated on ice for 10 minutes, a precipitate was separated by centrifugation at 4° C. (15300×g, 10 minutes), and 1 μL of supernatant was subjected to LC-MS analysis.\nAn amino acid forming a small pocket that stores a prenyl group in the crystal structure was selected for the introduction site of the LimF mutation. Specifically, the amino acids at the positions described in the table in the left column of FIG. 19 were replaced with relatively small Ala.\nTherefore, substitution of amino acids other than Ala with respect to the W273 position was comprehensively performed (middle column of FIG. 19). As a result, The mutation for W273N and W273T are focused, and in addition to the W273N mutation and the W273T mutation, simultaneous substitution with various amino acids was performed for His at 239, which is an amino acid adjacent to position 273 (right column of FIG. 19)."}},
  "note": "Several values for one entry are separate records, joined by “and”; a condition that tells them apart may be missing. Equal values may be shown once. Peptide text beside a SMILES is read from it.",
  "data": [
    {"molecule": "DHis", "values": [
      {"measurement": "prenylation by LimF in FIT-LimF system", "setting": "[1]; 100 μM LimF, 25° C., LC-MS", "result": "favorable substrates"}
    ]},
    {"molecule": "tecyclo [y I T N I A Y D P C] (ITNIAYDPC; not fully specified; cyclized with D-Tyr)", "values": [
      {"measurement": "Modification Efficiency % (Tyr prenylation)", "setting": "[1]", "result": 1, "unit": "%"}
    ]},
    {"molecule": "CCC(C)C1NC(=O)C(CCC(=O)O)NC(=O)C(CCC(=O)O)NC(=O)C(Cc2c[nH]cn2)NC(=O)C2CCCN2C(=O)C(Cc2ccc(O)cc2)NC(=O)C(CCCNC(=N)N)NC(=O)C2CCCN2C1=O", "note": "(stereo not shown) [bcLimE2] (cyclo(EEIPRYPH); configuration not given here)", "values": [
      {"measurement": "geranylation by LimF (LC-MS)", "setting": "[2]", "result": "quantitatively converted"},
      {"measurement": "farnesylation by LimF", "setting": "[2]; farnesyl pyrophosphate instead of GPP as prenyl group donor, otherwise as geranylation test", "result": "trace amount"},
      {"measurement": "Kcat", "setting": "[3]", "result": "13.8 ± 0.6", "unit": "min⁻¹"},
      {"measurement": "Km", "setting": "[3]", "result": "313 µM and 310 µM"},
      {"measurement": "Kcat", "setting": "[3]; listed as cyclo[RYPHEEIP]", "result": 13.80, "unit": "min⁻¹"}
    ]},
    {"molecule": "tecyclo [y I T N I T Y D P C] (ITNITYDPC; not fully specified; cyclized with D-Tyr)", "values": [
      {"measurement": "Modification Efficiency % (Tyr prenylation)", "setting": "[1]", "result": 21, "unit": "%"}
    ]},
    {"molecule": "CCC(C)C1NC(=O)C(CC(N)=O)NC(=O)C(C(C)O)NC(=O)C(C(C)CC)NC(=O)C2CCCN2C(=O)C(CC(=O)O)NC(=O)C(Cc2ccc(O)cc2)NC(=O)C(Cc2ccccc2)NC1=O", "note": "(stereo not shown) [bcLimE3] (cyclo(DPITNIFY); configuration not given here)", "values": [
      {"measurement": "geranylation by LimF (LC-MS)", "setting": "[2]", "result": "not subjected to geranylation"}
    ]},
    {"molecule": "LimF-H239G/W273T (protein) MKKRKSSKVFKSTIAPEEKLRYIGNHKQAFDIEPLYPLALFEEFVATTGDCIIECSGKIKQDQLYPARIDLQFSDKHHFHNIHTSIDFLKRAASRTDVNLNLDILATFLAGNFDYSKVQNILAGIDLRQNLGESKLKLFIRIGDYPAKMAVAKHLCNITPESEAMLRSDTLHIGFDFYLDGRSAIELYPELKKDEFNHPFIYNQLKTILSPEALKPLPLCNLFGIGLSPANEANVLYYGLENIEDFLSYFPINDTARRVHDFYLQQEGSRRMTVALSESEMKAGRINNVNLYYSKAFTSQNP", "values": [
      {"measurement": "KM (mM), kinetics of prenylation of bcLimE2 with FPP as prenyl group donor", "setting": "[4]", "result": 0.62, "unit": "mM"},
      {"measurement": "KM (mM), kinetics of prenylation of bcLimE2 with GPP as prenyl group donor", "setting": "[4]", "result": 0.58, "unit": "mM"},
      {"measurement": "C15 prenylation (farnesylation) selectivity and efficiency", "setting": "[5]; 100 μM bcLimE2, 1 mM GPP or FPP, 5 mM MgCl2, 16 hours, 25° C.", "result": "high selectivity and high efficiency"},
      {"measurement": "Final Conversion Efficiency", "setting": "[5]; prenyl group donor DMAPP", "result": "n.r."},
      {"measurement": "Final Conversion Efficiency", "setting": "[5]; prenyl group donor FPP", "result": ">99", "unit": "%"},
      {"measurement": "Final Conversion Efficiency", "setting": "[5]; prenyl group donor GGPP", "result": "n.r."},
      {"measurement": "Final Conversion Efficiency", "setting": "[5]; prenyl group donor GPP", "result": 16.9, "unit": "%"}
    ]}
  ]
}
